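How tested: cells in 96-well plates exposed to compound for 48 hours at five concentrations. Abbreviation: GI50, concentration required for 50% inhibition of growth. The concentration for full growth arrest is given as TGI.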
Experiments:
Assay in all cases: inhibition of tumour cell growth, NCI panel, 48 h
NCI-H23 lung = system: NCI-H23 lung
NCI-H460 lung = system: NCI-H460 lung
NCI-H522 lung = system: NCI-H522 lung
NCI/ADR-RES ovarian = system: NCI/ADR-RES ovarian
OVCAR-3 ovarian = system: OVCAR-3 ovarian
OVCAR-4 ovarian = system: OVCAR-4 ovarian
OVCAR-5 ovarian = system: OVCAR-5 ovarian
OVCAR-8 ovarian = system: OVCAR-8 ovarian
PC-3 prostate = system: PC-3 prostate
RPMI-8226 leukemia = system: RPMI-8226 leukemia
RXF 393 renal = system: RXF 393 renal
SF-268 CNS = system: SF-268 CNS
SF-295 CNS = system: SF-295 CNS
SF-539 CNS = system: SF-539 CNS
SK-MEL-2 melanoma = system: SK-MEL-2 melanoma
SK-MEL-28 melanoma = system: SK-MEL-28 melanoma
SK-MEL-5 melanoma = system: SK-MEL-5 melanoma
SK-OV-3 ovarian = system: SK-OV-3 ovarian
SN12C renal = system: SN12C renal
SNB-19 CNS = system: SNB-19 CNS
SNB-75 CNS = system: SNB-75 CNS
SR leukemia = system: SR leukemia
SW-620 colon = system: SW-620 colon
T-47D breast = system: T-47D breast
TK-10 renal = system: TK-10 renal
U251 CNS = system: U251 CNS
UACC-257 melanoma = system: UACC-257 melanoma
UACC-62 melanoma = system: UACC-62 melanoma
UO-31 renal = system: UO-31 renal

Cc1ccccc1C1=C(c2cn(C)c3ccccc23)C(=O)NC1=O
TGI (NCI-H23 lung): > 25 µM | GI50 (NCI-H460 lung): 14.3 µM | TGI (NCI-H460 lung): > 25 µM | GI50 (NCI-H522 lung): > 22.6 µM | TGI (NCI-H522 lung): > 25 µM | GI50 (NCI/ADR-RES ovarian): 24.3 µM | TGI (NCI/ADR-RES ovarian): > 25 µM | GI50 (OVCAR-3 ovarian): 10.8 µM | TGI (OVCAR-3 ovarian): > 25 µM | GI50 (OVCAR-4 ovarian): > 21.1 µM | TGI (OVCAR-4 ovarian): > 25 µM | GI50 (OVCAR-5 ovarian): > 23.6 µM | TGI (OVCAR-5 ovarian): > 25 µM | GI50 (OVCAR-8 ovarian): > 22.5 µM | TGI (OVCAR-8 ovarian): > 25 µM | GI50 (PC-3 prostate): 9.74 µM | TGI (PC-3 prostate): > 25 µM | GI50 (RPMI-8226 leukemia): 20 µM | TGI (RPMI-8226 leukemia): > 25 µM | GI50 (RXF 393 renal): 7.02 µM | TGI (RXF 393 renal): > 25 µM | GI50 (SF-268 CNS): > 25 µM | TGI (SF-268 CNS): > 25 µM | GI50 (SF-295 CNS): 14.7 µM | TGI (SF-295 CNS): > 25 µM | GI50 (SF-539 CNS): 13.7 µM | TGI (SF-539 CNS): > 25 µM | GI50 (SK-MEL-2 melanoma): 24.9 µM | TGI (SK-MEL-2 melanoma): > 25 µM | GI50 (SK-MEL-28 melanoma): > 25 µM | TGI (SK-MEL-28 melanoma): > 25 µM | GI50 (SK-MEL-5 melanoma): 16 µM | TGI (SK-MEL-5 melanoma): > 25 µM | GI50 (SK-OV-3 ovarian): > 25 µM | TGI (SK-OV-3 ovarian): > 25 µM | GI50 (SN12C renal): > 22.7 µM | TGI (SN12C renal): > 25 µM | GI50 (SNB-19 CNS): > 25 µM | TGI (SNB-19 CNS): > 25 µM | GI50 (SNB-75 CNS): 0.644 µM | TGI (SNB-75 CNS): > 25 µM | GI50 (SR leukemia): 7.78 µM | TGI (SR leukemia): > 25 µM | GI50 (SW-620 colon): 12.1 µM | TGI (SW-620 colon): > 25 µM | GI50 (T-47D breast): 17.8 µM | TGI (T-47D breast): > 25 µM | GI50 (TK-10 renal): > 25 µM | TGI (TK-10 renal): > 25 µM | GI50 (U251 CNS): 13.2 µM | TGI (U251 CNS): > 25 µM | GI50 (UACC-257 melanoma): > 25 µM | TGI (UACC-257 melanoma): > 25 µM | GI50 (UACC-62 melanoma): > 20.5 µM | TGI (UACC-62 melanoma): > 25 µM | GI50 (UO-31 renal): > 25 µM | TGI (UO-31 renal): > 25 µM

— PubChem BioAssay (NCI)
